These results are taken from patent US9469615B2, “Quinoxalines and AZA-quinoxalines as CRTH2 receptor modulators” (Merck Sharp & Dohme Corp., priority 2010, dated 2016).

In one experiment the target is T1, hCRTH2 (Homo sapiens, UniProt Q9Y5Y4).
T1 construct: expressed in transfected cells; host or cells: HEK (human embryonic kidney) cells expressing hCRTH2; membrane preparation
T1 sequence (Q9Y5Y4 1-395): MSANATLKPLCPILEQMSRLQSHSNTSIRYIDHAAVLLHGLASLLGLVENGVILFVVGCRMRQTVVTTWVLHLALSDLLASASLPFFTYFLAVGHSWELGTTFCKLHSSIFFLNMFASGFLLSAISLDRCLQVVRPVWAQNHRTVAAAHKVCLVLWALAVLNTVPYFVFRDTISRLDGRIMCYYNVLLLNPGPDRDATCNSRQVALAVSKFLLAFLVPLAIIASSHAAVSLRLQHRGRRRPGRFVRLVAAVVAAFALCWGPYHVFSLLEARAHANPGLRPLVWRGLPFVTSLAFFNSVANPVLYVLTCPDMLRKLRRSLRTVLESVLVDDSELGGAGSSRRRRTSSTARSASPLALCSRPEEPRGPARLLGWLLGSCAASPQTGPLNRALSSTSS
The experiment is described as follows: Radioligand binding assay ([3H]PGD2 competition, HEK-hCRTH2 membranes). The following applies: [3H]PGD2 binding, values in text. Summed up: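 Competition against 3.0 nM [3H]PGD2 was run for 60 min at room temperature in pH 7.4 Tris-HCl buffer with EDTA, 2 mM MnCl2 and 1% DMSO, using 8-20 μg HEK-hCRTH2 membrane protein. 10 μM PGD2 set non-specific binding; filter-bound counts were read by scintillation.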
`O=C(N[C@@H]1CCCc2cc(F)ccc21)c1ccc2nc(-c3ccc(F)cc3)c(CCC3CC3C(=O)O)nc2c1` (stereo partly drawn) [compound 264, 2-(2-(7-(((R)-6-fluoro-1,2,3,4-tetrahydronaphthalen-l-yl)carbamoyl)-3-(4-fluorophenyl)quinoxalin-2-yl)ethyl)cyclopropanecarboxylic acid]: the Ki is 15.4 nM.

Staying with this experiment, now noted: [3H]PGD2 competition, Table B.
In turn, `C[C@@H](CCc1nc2cc(C(=O)N[C@@H]3CCCc4ccccc43)ccc2nc1-c1ccc(F)cc1)CC(=O)O` [compound 258, (S)-5-(3-(4-fluorophenyl)-7-(((R)-1,2,3,4-tetrahydronaphthalen-1-yl)carbamoyl)quinoxalin-2-yl)-3-methylpentanoic acid] had a Ki of 2.1 to 20 nM.
For `O=C(O)Cc1cccc(-c2nc3cc(C(=O)N4CCN(c5ccccc5)CC4)ccc3nc2-c2ccc(Cl)cc2)c1` [compound 259, 2-(3-(3-(4-chlorophenyl)-7-(4-phenylpiperazine-1-carbonyl)quinoxalin-2-yl)phenyl)acetic acid], the Ki was in the range of 201 to 700 nM.
In turn, `O=C(N[C@@H]1CCCc2cc(F)ccc21)c1ccc2nc(-c3ccc(F)cc3)c(CC[C@H]3C[C@@H]3C(=O)O)nc2c1` [compound 261, (1S,2S)-2-(2-(7-(((R)-6-fluoro-1,2,3,4-tetrahydronaphthalen-1-yl)carbamoyl)-3-(4-fluorophenyl)quinoxalin-2-yl)ethyl)cyclopropane-carboxylic acid] yielded a Ki of 2.1 to 20 nM.
`O=C(N[C@@H]1CCCc2ccccc21)c1ccc2nc(-c3ccc(F)cc3)c(CC[C@H]3C[C@@H]3C(=O)O)nc2c1` [compound 262, (1S,2S)-2-(2-(3-(4-fluorophenyl)-7-(((R)-1,2,3,4-tetrahydronaphthalen-1-yl)carbamoyl)quinoxalin-2-yl)ethyl)cyclopropanecarboxylic acid]: the inhibition constant (Ki) lay within 2.1 to 20 nM.
Still for that read-out and setting: in the case of `O=C(N[C@@H]1CCCc2cc(F)ccc21)c1ccc2nc(-c3ccc(F)cc3)c(CC[C@@H]3C[C@H]3C(=O)O)nc2c1` [compound 263, (1R,2R)-2-(2-(7-(((R)-6-fluoro-1,2,3,4-tetrahydronaphthalen-l-yl)carbamoyl)-3-(4-fluorophenyl)quinoxalin-2-yl)ethyl)cyclopropanecarboxylic acid] it was 2.1 to 20 nM.
Compound `O=C(N[C@@H]1CCCc2cc(F)ccc21)c1ccc2nc(-c3ccc(F)cc3)c(CCC3CC3C(=O)O)nc2c1` (stereo partly drawn) [compound 264, 2-(2-(7-(((R)-6-fluoro-1,2,3,4-tetrahydronaphthalen-l-yl)carbamoyl)-3-(4-fluorophenyl)quinoxalin-2-yl)ethyl)cyclopropanecarboxylic acid] registered a Ki of 2.1 to 20 nM.
Take `C[C@@H]1CN(c2ccc(F)cc2)CCN1C(=O)c1ccc2nc(-c3ccccc3)c(CCCCC(=O)O)nc2c1` [compound 265, (R)-5-(7-(4-(4-fluorophenyl)-2-methylpiperazine-1-carbonyl)-3-phenylquinoxalin-2-yl)pentanoic acid]: the Ki was 2.1 to 20 nM.
The same measure, in the same setting: in the case of `O=C(O)CCCCc1nc2cc(C(=O)NC3CC(=O)Nc4ccccc43)ccc2nc1-c1ccccc1` (centres unmarked) [compound 266, 5-(7-((2-oxo-1,2,3,4-tetrahydroquinolin-4-yl)carbamoyl)-3-phenylquinoxalin-2-yl)pentanoic acid] it was 2.1 to 20 nM; in that of `O=C(O)CCCCc1nc2cc(C(=O)N3CCC4(CC3)CNC(=O)c3ccccc34)ccc2nc1-c1ccc(Cl)cc1` [compound 267, 5-(3-(4-chlorophenyl)-7-(1-oxo-2,3-dihydro-1H-spiro[isoquinoline-4,4′-piperidin]-1′-ylcarbonyl)quinoxalin-2-yl)pentanoic acid], 2.1 to 20 nM; in that of `O=C(O)CCCCc1nc2cc(C(=O)NC3CCC(=O)Nc4ccccc43)ccc2nc1-c1ccc(Cl)cc1` (centres unmarked) [compound 268, 5-(3-(4-chlorophenyl)-7-((2-oxo-2,3,4,5-tetrahydro-1H-benzo[b]azepin-5-yl)carbamoyl)quinoxalin-2-yl)pentanoic acid], 2.1 to 20 nM.
The compound `O=C(O)Cc1cccc(CCCc2nc3cc(C(=O)N[C@@H]4CCCc5ccccc54)ccc3nc2-c2ccc(F)cc2)c1` [compound 269, (R)-2-(3-(3-(3-(4-fluorophenyl)-7-((1,2,3,4-tetrahydronaphthalen-1-yl)carbamoyl)quinoxalin-2-yl)propyl)phenyl)acetic acid] displayed a Ki of 201 to 700 nM.
Regarding `O=C(O)Cc1cccc(CCCc2nc3cc(C(=O)N[C@H]4CCCc5ccccc54)ccc3nc2-c2ccc(F)cc2)c1` [compound 270, (S)-2-(3-(3-(3-(4-fluorophenyl)-7-((1,2,3,4-tetrahydronaphthalen-1-yl)carbamoyl)quinoxalin-2-yl)propyl)phenyl)acetic acid], the Ki lay in the range of 201 to 700 nM.
On the same count and under the same terms, then `C[C@@H](NC(=O)c1ccc2nc(-c3ccc(F)cc3)c(CCCc3cccc(CC(=O)O)c3)nc2c1)c1ccc(F)cc1` [compound 271], with 201 to 700 nM; and `O=C(O)Cc1cccc(CCCc2nc3cc(C(=O)N4CCN(c5ccccc5)CC4)ccc3nc2-c2ccc(F)cc2)c1` [compound 272, 2-(3-(3-(3-(4-fluorophenyl)-7-(4-phenylpiperazine-1-carbonyl)quinoxalin-2-yl)propyl)phenyl)acetic acid], with 20.1 to 200 nM.
Consider `O=C(O)Cc1cccc(CCCc2nc3cc(C(=O)N4CC(c5cccc(F)c5)C4)ccc3nc2-c2ccc(F)cc2)c1` [compound 273, 2-(3-(3-(3-(4-fluorophenyl)-7-(3-(3-fluorophenyl)azetidine-1-carbonyl)quinoxalin-2-yl)propyl)phenyl)acetic acid], for which the Ki is 20.1 to 200 nM.
Still for that read-out and setting: then `O=C(O)Cc1cccc(CCCc2nc3cc(C(=O)N4CC[C@@H](c5ccccc5)C4)ccc3nc2-c2ccc(F)cc2)c1` [compound 274, (S)-2-(3-(3-(3-(4-fluorophenyl)-7-(3-phenylpyrrolidine-1-carbonyl)quinoxalin-2-yl)propyl)phenyl)acetic acid], with 2.1 to 20 nM.
In turn, `CN(Cc1ccc(F)cc1)C(=O)c1ccc2nc(-c3ccc(F)cc3)c(CCCc3cccc(CC(=O)O)c3)nc2c1` [compound 275, 2-(3-(3-(7-((4-fluorobenzyl)(methyl)carbamoyl)-3-(4-fluorophenyl)quinoxalin-2-yl)propyl)phenyl)acetic acid] registered a Ki of 20.1 to 200 nM.
Take `C[C@H](CCc1nc2cc(C(=O)N[C@@H]3CCCc4ccccc43)ccc2nc1-c1ccccc1)CC(=O)O` [compound 276, (R)-3-methyl-5-(3-phenyl-7-(((R)-1,2,3,4-tetrahydronaphthalen-1-yl)carbamoyl)quinoxalin-2-yl)pentanoic acid]: the Ki lay within 2.1 to 20 nM.
For `C[C@H](CCc1nc2cc(C(=O)N[C@H]3CCCc4ccccc43)ccc2nc1-c1ccccc1)CC(=O)O` [compound 277, (R)-3-methyl-5-(3-phenyl-7-(((S)-1,2,3,4-tetrahydronaphthalen-1-yl)carbamoyl)quinoxalin-2-yl)pentanoic acid], the Ki was 2.1 to 20 nM.
Still for that read-out and setting: in the case of `C[C@H](CCc1nc2cc(C(=O)N[C@H](C)c3ccc(F)cc3)ccc2nc1-c1ccccc1)CC(=O)O` [compound 278, (R)-5-(7-(((R)-1-(4-fluorophenyl)ethyl)carbamoyl)-3-phenylquinoxalin-2-yl)-3-methylpentanoic acid] it was 20.1 to 200 nM; in that of `C[C@H](CCc1nc2cc(C(=O)N[C@@H](C)c3ccc(F)cc3)ccc2nc1-c1ccccc1)CC(=O)O` [compound 279, (R)-5-(7-(((S)-1-(4-fluorophenyl)ethyl)carbamoyl)-3-phenylquinoxalin-2-yl)-3-methylpentanoic acid], 20.1 to 200 nM; in that of `C[C@H](CCc1nc2cc(C(=O)N3CCN(c4ccccc4)CC3)ccc2nc1-c1ccccc1)CC(=O)O` [compound 280, (R)-3-methyl-5-(3-phenyl-7-(4-phenylpiperazine-1-carbonyl)quinoxalin-2-yl)pentanoic acid], 701 to 2300 nM.
On the same count and under the same terms, in the case of `C[C@H](CCc1nc2cc(C(=O)N3CC(c4cccc(F)c4)C3)ccc2nc1-c1ccccc1)CC(=O)O` [compound 281, (R)-5-(7-(3-(3-fluorophenyl)azetidine-1-carbonyl)-3-phenylquinoxalin-2-yl)-3-methylpentanoic acid] it was 20.1 to 200 nM.
In the case of `C[C@H](CCc1nc2cc(C(=O)N3CC[C@@H](c4ccccc4)C3)ccc2nc1-c1ccccc1)CC(=O)O` [compound 282, (R)-3-methyl-5-(3-phenyl-7-((S)-3-phenylpyrrolidine-1-carbonyl)quinoxalin-2-yl)pentannic acid], the Ki lay within 201 to 700 nM.
Consider `C[C@H](CCc1nc2cc(C(=O)N(C)Cc3ccc(F)cc3)ccc2nc1-c1ccccc1)CC(=O)O` [compound 283, (R)-5-(7-((4-fluorobenzyl)(methyl)carbamoyl)-3-phenylquinoxalin-2-yl)-3-methylpentanoic acid], for which the Ki is 201 to 700 nM.
For the compound `O=C(O)CCCCc1nc2cc(C(=O)NC3CC(=O)Nc4ccc(F)cc43)ccc2nc1-c1ccccc1` (centres unmarked) [compound 284, 5-(7-((6-fluoro-2-oxo-1,2,3,4-tetrahydroquinolin-4-yl)carbamoyl)-3-phenylquinoxalin-2-yl)pentanoic acid], the Ki lay within 2.1 to 20 nM.
On the same count and under the same terms, in the case of `Cc1ccc([C@@]23C[C@@H]2CN(C(=O)c2ccc4nc(-c5ccc(Cl)cc5)c(CCCCC(=O)O)nc4c2)C3)cc1` [compound 285, 5-(3-(4-chlorophenyl)-7-((1R,5S)-1-(p-tolyl)-3 - azabicyclo[3.1.0]hexane-3-carbonyl)quinoxalin-2-yl)pentanoic acid] it was 2.1 to 20 nM.
Consider `C[C@@H](CCc1nc2cc(C(=O)N[C@H]3CCCc4ccccc43)ccc2nc1-c1ccccc1)CC(=O)O` [compound 286, (S)-3-methyl-5-(3-phenyl-7-(((S)-1,2,3,4-tetrahydronaphthalen-1-yl)carbamoyl)quinoxalin-2-yl)pentanoic acid], for which the Ki lay within 20.1 to 200 nM.

In general, Ki refers to a measure of affinity in units of concentration, obtained from inhibition or displacement. The low end stands for a stronger hold on the target, the high end for a looser hold on the target.
